Laboratory results as given in patent US8513268B2, “1H-quinazoline-2,4-diones processes for their production, pharmaceutical compositions, and treatment for epilepsy” (Novartis AG, priority 2005, dated 2013).
Counter-ions that a name gives are not always drawn.

Experiments:
AMPA-Receptor = experiment: [3H] CNQX binding test (AMPA-receptor binding); conditions: brain membranes, 5 nM [3H]-CNQX, 4° C., 40 min
Experimental: CNQX binding test (Honoré et al. Biochem. Pharmacol. 1989, 38: 3207-3212). This test is performed as follows: • Brain membranes: The animals are decapitated, the brain removed and homogenized in 10 volumes of ice-cold 10% sucrose with a glass/Teflon homogenizer at positions 5 for 30 sec. The membranes are centrifuged at 1000×g for 10 min, and the supernatant centrifuged at 20,000×g for 15 min. The resulting pellet is resuspended in 10 volumes of cold water with a tissue homogenizer (Brinkman Polytron) at position 5 for 15 sec and the suspension centrifuged at 8000×g for 10 min. The supernatant including the buffy layer is centrifuged at 40,000×g for 20 min, the pellet resuspended in 5 volumes of water and the suspension frozen (20-30 min in dry ice/MeOH) and thawed (water-bath at 37° C.) twice. The suspension is centrifuged at 40,000×g for 20 min, the pellet resuspended in 50 mM HEPES/KOH, pH 7.5, and centrifuged at 40,000×g for 10 min. […]
Two hundred μL of the scintillation fluid Microscint 20 (Packard) are added and the radioactivity is counted in a Packard Topcount scintillation counter at an efficiency of 40-45%. […]

rGluR3 AMPA receptor = molecular target: T1, rGluR3 AMPA receptor (Rattus norvegicus, UniProt P19492); experiment: Functional test for AMPA-receptor activity, two electrode voltage clamp in Xenopus laevis oocytes; format: cell-based; conditions: oocytes expressing rat GluR3-(flop) AMPA receptor; read-out: IC50-value (antagonist)
T1 construct: expressed in transfected cells; host or cells: Xenopus laevis oocytes injected with cRNA
Experimental: For the determination of functional agonism or antagonism at the AMPA-receptor, experiments can be performed on Xenopus oocytes as previously described in detail (Urwyler et al., Mol. Pharmacol. 2001, 60, 963-971). Briefly, two electrode voltage clamp recordings are performed from Xenopus laevis oocytes expressing GluR3 AMPA receptors. Plasmids for the rat GluR3-(flop) (Hollmann et al., Science 1991, 252, 851-853) are linearized and transcribed into capped cRNA using an in vitro RNA synthesis kit (Ambion, Texas) with T7 Polymerase. Stock solutions are kept in 70% EtOH. Before use, cRNA is precipitated and resuspended in DEPC-treated water. Oocytes are injected with RNA coding the rat GluR3-(flop) AMPA receptor. For recordings, oocytes are placed in a perfusion chamber with continuous gravity flow of frog Ringer's solution. For recordings from oocytes expressing rGluR3-(flop) receptors frog, Ringer's solution containing Mg^2+ (81 mM NaCl; 2.5 mM KCl; 1 mM CaCl2; 1 mM MgCl2, 2.5 mM NaHCO3, 5 mM HEPES, pH 7.4) is used.
Test compounds are washed in with gravity.

T1 sequence (P19492 23-888): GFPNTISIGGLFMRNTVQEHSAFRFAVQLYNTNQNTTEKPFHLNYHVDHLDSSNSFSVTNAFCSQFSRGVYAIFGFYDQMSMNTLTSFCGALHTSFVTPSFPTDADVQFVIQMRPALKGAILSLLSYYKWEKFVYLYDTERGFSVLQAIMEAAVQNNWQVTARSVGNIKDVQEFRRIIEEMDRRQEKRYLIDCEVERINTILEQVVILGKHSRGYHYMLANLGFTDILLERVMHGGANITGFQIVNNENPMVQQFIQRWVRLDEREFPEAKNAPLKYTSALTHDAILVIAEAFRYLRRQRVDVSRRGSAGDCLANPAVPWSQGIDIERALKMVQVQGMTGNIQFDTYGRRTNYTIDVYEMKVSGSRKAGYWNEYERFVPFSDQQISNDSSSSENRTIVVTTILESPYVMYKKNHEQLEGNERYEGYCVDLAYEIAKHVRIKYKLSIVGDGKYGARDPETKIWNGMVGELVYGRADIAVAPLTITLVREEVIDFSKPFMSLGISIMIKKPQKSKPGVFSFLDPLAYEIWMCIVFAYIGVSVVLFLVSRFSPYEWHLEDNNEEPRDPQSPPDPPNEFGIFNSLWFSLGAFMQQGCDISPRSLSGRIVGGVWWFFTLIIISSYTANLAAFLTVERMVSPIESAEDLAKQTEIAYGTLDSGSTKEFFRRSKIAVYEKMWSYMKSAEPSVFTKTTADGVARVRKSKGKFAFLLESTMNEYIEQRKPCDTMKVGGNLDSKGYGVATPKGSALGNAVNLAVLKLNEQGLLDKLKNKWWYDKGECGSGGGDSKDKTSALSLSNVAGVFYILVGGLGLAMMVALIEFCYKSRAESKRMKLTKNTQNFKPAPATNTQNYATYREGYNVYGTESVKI

Compound	melting point [°C]	IC50 (AMPA-Receptor) [µM]	IC50 (rGluR3 AMPA receptor) [µM]
CS(=O)(=O)Nn1c(=O)[nH]c2cc(C(F)(F)F)c(-c3cccc(C#N)c3)cc2c1=O [Example 34, N-[6-(3-Cyano-phenyl)-2,4-dioxo-7-trifluoromethyl-1,4-dihydro-2H-quinazolin-3-yl]-methanesulfonamide]	291 to 292		
COC(C)c1cc2c(=O)n(NS(C)(=O)=O)c(=O)[nH]c2cc1C(F)(F)F (stereo not drawn) [Example 3, N-[6-(1-Methoxy-ethyl)-2,4-dioxo-7-trifluoromethyl-1,4-dihydro-2H-quinazolin-3-yl]-methanesulfonamide]	233 to 236		
CS(=O)(=O)Nn1c(=O)[nH]c2cc(C(F)(F)F)c(C3CCCCO3)cc2c1=O (stereo not drawn) [Example 24, N-[2,4-Dioxo-6-(tetrahydro-pyran-2-yl)-7-trifluoromethyl-1,4-dihydro-2H-quinazolin-3-yl]-methanesulfonamide]	275 to 280		
CC(=O)c1cccc(-c2cc3c(=O)n(NS(C)(=O)=O)c(=O)[nH]c3cc2C(F)(F)F)c1 [Example 36, N-[6-(3-Acetyl-phenyl)-2,4-dioxo-7-trifluoromethyl-1,4-dihydro-2H-quinazolin-3-yl]-methanesulfonamide]	220 to 222		
CCC(=O)c1cc2c(=O)n(NS(C)(=O)=O)c(=O)[nH]c2cc1C(F)(F)F [Example 6, N-(2,4-Dioxo-6-propionyl-7-trifluoromethyl-1,4-dihydro-2H-quinazolin-3-yl)-methanesulfonamide]	234 to 236		
CN(C)Cc1cccc(-c2cc3c(=O)n(NS(C)(=O)=O)c(=O)[nH]c3cc2C(F)(F)F)c1 [Example 39, N-[6-(3-Dimethylaminomethyl-phenyl)-2,4-dioxo-7-trifluoromethyl-1,4-dihydro-2H-quinazolin-3-yl]-methanesulfonamide]	346 to 348		
CS(=O)(=O)Nn1c(=O)[nH]c2cc(C(F)(F)F)c(-c3ccc(C#N)cc3)cc2c1=O [Example 35, N-[6-(4-Cyano-phenyl)-2,4-dioxo-7-trifluoromethyl-1,4-dihydro-2H-quinazolin-3-yl]-methanesulfonamide]	145 to 147		
CCC(O)c1cc2c(=O)n(NS(C)(=O)=O)c(=O)[nH]c2cc1C(F)(F)F (stereo not drawn) [Example 7, N-[6-(1-Hydroxy-propyl)-2,4-dioxo-7-trifluoromethyl-1,4-dihydro-2H-quinazolin-3-yl]-methanesulfonamide]	219 to 222		
CC(OC1CCCC1)c1cc2c(=O)n(NS(C)(=O)=O)c(=O)[nH]c2cc1C(F)(F)F (stereo not drawn) [Example 17, N-[6-(1-Cyclopentyloxy-ethyl)-2,4-dioxo-7-trifluoromethyl-1,4-dihydro-2H-quinazolin-3-yl]-methanesulfonamide]	188 to 192		
CC(=O)c1cc2c(=O)n(NS(C)(=O)=O)c(=O)[nH]c2cc1C(F)(F)F [Example 1, N-(6-Acetyl-2,4-dioxo-7-trifluoromethyl-1,4-dihydro-2H-quinazolin-3-yl)-methanesulfonamide]	258 to 265		
CS(=O)(=O)Nn1c(=O)[nH]c2cc(C(F)(F)F)c(-c3cccc(CN)c3)cc2c1=O (as salt: hydrochloride) [Example 38, N-[6-(3-Aminomethyl-phenyl)-2,4-dioxo-7-trifluoromethyl-1,4-dihydro-2H-quinazolin-3-yl]methanesulfonamide]	282 to 284		
CCCOC(C)c1cc2c(=O)n(NS(C)(=O)=O)c(=O)[nH]c2cc1C(F)(F)F (stereo not drawn) [Example 14, N-[2,4-Dioxo-6-(1-propoxy-ethyl)-7-trifluoromethyl-1,4-dihydro-2H-quinazolin-3-yl]-methanesulfonamide]	95 to 105		
CC(C)C(O)c1cc2c(=O)n(NS(C)(=O)=O)c(=O)[nH]c2cc1C(F)(F)F (stereo not drawn) [Example 22, N-[6-(1-Hydroxy-2-methyl-propyl)-2,4-dioxo-7-trifluoromethyl-1,4-dihydro-2H-quinazolin-3-yl]methanesulfonamide]	232 to 235		
CC(C)OC(C)c1cc2c(=O)n(NS(C)(=O)=O)c(=O)[nH]c2cc1C(F)(F)F (stereo not drawn) [Example 5, N-[6-(1-Isopropoxy-ethyl)-2,4-dioxo-7-trifluoromethyl-1,4-dihydro-2H-quinazolin-3-yl]-methanesulfonamide]	110 to 115		
CCCC(O)c1cc2c(=O)n(NS(C)(=O)=O)c(=O)[nH]c2cc1C(F)(F)F (stereo not drawn) [Example 11, N-[6-(1-Hydroxy-butyl)-2,4-dioxo-7-trifluoromethyl-1,4-dihydro-2H-quinazolin-3-yl]-methanesulfonamide]	223 to 226		
COC(c1cc2c(=O)n(NS(C)(=O)=O)c(=O)[nH]c2cc1C(F)(F)F)C(C)C (stereo not drawn) [Example 23, N-[6-(1-Methoxy-2-methyl-propyl)-2,4-dioxo-7-trifluoromethyl-1,4-dihydro-2H-quinazolin-3-yl]-methanesulfonamide]	227 to 229		
CCOC(C)c1cc2c(=O)n(NS(C)(=O)=O)c(=O)[nH]c2cc1C(F)(F)F (stereo not drawn) [Example 4, N-[6-(1-Ethoxy-ethyl)-2,4-dioxo-7-trifluoromethyl-1,4-dihydro-2H-quinazolin-3-yl]-methanesulfonamide]	105 to 112	< 1	< 3
CCCCOC(C)c1cc2c(=O)n(NS(C)(=O)=O)c(=O)[nH]c2cc1C(F)(F)F (stereo not drawn) [Example 15, N-[6-(1-Butoxy-ethyl)-2,4-dioxo-7-trifluoromethyl-1,4-dihydro-2H-quinazolin-3-yl]-methanesulfonamide]	84 to 90		
CC(C)C(=O)c1cc2c(=O)n(NS(C)(=O)=O)c(=O)[nH]c2cc1C(F)(F)F [Example 21, N-(6-Isobutyryl-2,4-dioxo-7-trifluoromethyl-1,4-dihydro-2H-quinazolin-3-yl)-methanesulfonamide]	228 to 231		
CS(=O)(=O)Nn1c(=O)[nH]c2cc(C(F)(F)F)c(C(=O)C(F)(F)F)cc2c1=O [Example 20, N-[2,4-Dioxo-6-(2,2,2,-trifluoro-acetyl)-7-trifluoromethyl-1,4-dihydro-2H-quinazolin-3-yl]-methanesulfonamide]	262 to 265		
CC(O)c1cc2c(=O)n(NS(C)(=O)=O)c(=O)[nH]c2cc1C(F)(F)F (racemic) [Example 2, N-[6-(1-Hydroxy-ethyl)-2,4-dioxo-7-trifluoromethyl-1,4-dihydro-2H-quinazolin-3-yl]-methanesulfonamide]	263 to 268		
CS(=O)(=O)Nn1c(=O)[nH]c2cc(C(F)(F)F)c(C3CCCO3)cc2c1=O (stereo not drawn) [Example 12, N-[2,4-Dioxo-6-(tetrahydro-furan-2-yl)-7-trifluoromethyl-1,4-dihydro-2H-quinazolin-3-yl]-methanesulfonamide]	254 to 257		
CC(O)c1cccc(-c2cc3c(=O)n(NS(C)(=O)=O)c(=O)[nH]c3cc2C(F)(F)F)c1 (stereo not drawn) [Example 37, N-{6-[3-(1-Hydroxy-ethyl)-phenyl]-2,4-dioxo-7-trifluoromethyl-1,4-dihydro-2H-quinazolin-3-yl}-methanesulfonamide]	165 to 169		
CS(=O)(=O)Nn1c(=O)[nH]c2cc(C(F)(F)F)c(CCCO)cc2c1=O [Example 25, N-[6-(3-Hydroxy-propyl)-2,4-dioxo-7-trifluoromethyl-1,4-dihydro-2H-quinazolin-3-yl]-methanesulfonamide]	243 to 247		
CCCC(=O)c1cc2c(=O)n(NS(C)(=O)=O)c(=O)[nH]c2cc1C(F)(F)F [Example 10, N-(6-Butyryl-2,4-dioxo-7-trifluoromethyl-1,4-dihydro-2H-quinazolin-3-yl)-methanesulfonamide]	236 to 239		
